Here are results for 13 compounds from patent US6313153A, “Compositions and methods for treating nephritis and inhibiting TGF -β related conditions using pyridylacrylamide derivatives” (Tsumura & Co., priority 1997, dated 2001).

Where a name gives a salt, the structure may show the parent alone.

In one assay the test system is total TGF-β1. Description: production of total TGF-β1 in glomeruli isolated from nephritic mice (ELISA). The class given is cell-based, BALB/c male mice. The following applies: Mus musculus, 10^-6 M, 48 hours, supernatant acid treated, read-out: Inhibition rate (%) of production of total TGF-β1. The procedure: (§1) BALB/c male mice were adapted in a feeding chamber for 1 week before subjecting to experiments. Nephritis was induced by subcutaneously injecting an emulsion of rabbit γ-globulin and Freund's complete adjuvant on the back in a dose amount of 1.0 mg per mouse and, after 5 days (on the zeroth day), intravenously injecting rabbit anti-mouse GBM serum in a dose amount of 0.1 ml per mouse. After 1 day from the injection of anti-serum, the glomeruli were isolated through sieves with different sizes and washed twice. Each compound to be tested (10^-6 M) was added while the solvent was added to the control groups. The glomeruli were incubated in RPMI-1640 serum-free medium for 48 hours. The amount of production of active TGF-β1 was determined by measuring the supernatant itself after the incubation for 48 hours in ELSA method. Further, the supernatant was treated with hydrochloric acid and the pH was returned with sodium hydroxide. The total amount of TGF-β1 produced in the supernatant was measured in ELISA method. The protein concentration in the medium was also measured as glomeruli protein concentration. The inhibition rate was calculated by the following equation.
(§2) Inhibition rate (%)=100×(value of control group-value of sample)/(value of control group)
A general note: ELISA stands for enzyme-linked immunosorbent assay.

The test system of a further assay is anti-GBM nephritic mice. Kind of assay: anti-GBM nephritic mice: proteinuria, serum cholesterol, blood urea nitrogen and serum creatinine.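 For Proteinuria 10th day: minus not effective plus trend double p<0.05 triple p<0.01 quadruple p<0.001 improvement vs control.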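 For Proteinuria 5th day: minus not effective plus trend double p<0.05 triple p<0.01 quadruple p<0.001 improvement vs control.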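 For Serum Parameter BUN (blood urea nitrogen): minus not effective plus trend double p<0.05 triple p<0.01 quadruple p<0.001 improvement vs control.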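 For Serum Parameter S-Ch (serum cholesterol): minus not effective plus trend double p<0.05 triple p<0.01 quadruple p<0.001 improvement vs control.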 Conditions: for Total Evaluation: 3 × (number of + in proteinuria) + (number of + in serum parameter); for Proteinuria 5th day: 5th day from intravenous injection of anti-GBM serum; for Proteinuria 5th day / Proteinuria 10th day / Serum Parameter BUN (blood urea nitrogen) / Serum Parameter S-Ch (serum cholesterol) / Serum Parameter S-Cr (serum creatinine): oral; for Proteinuria 10th day: 10th day from intravenous injection of anti-GBM serum; for Serum Parameter BUN (blood urea nitrogen) / Serum Parameter S-Ch (serum cholesterol) / Serum Parameter S-Cr (serum creatinine): 11th day. The format is in vivo, BALB/c mice.

Another assay concerns active TGF-β1. Kind of assay: production of active TGF-β1 in glomeruli isolated from nephritic mice (ELISA). The format is cell-based, BALB/c male mice. The following applies: Mus musculus, 10^-6 M, 48 hours, read-out: Inhibition rate (%) of production of active TGF-β1. The procedure: as §1, §2
Another assay deals with TGF-β1. Description: Glomerular TGF-β1 Expression in IgA Nephropathy in Mice (immunohistochemical staining score). The format is in vivo, Male ddY mice. The following applies: for staining score (Index), glomerular TGF-β1: 5 weeks, Mean ± S.E. An excerpt:
Effects of the compounds of the present Invention on the Glomerular TGF-β1 Expression in IgA Nephropahty in Mice
Male ddY mice of 9 weeks old were used, each group consisting of 5 mice. One kidney was nephrectomized from the mice on the zero week, and carbon was intravenously injected from 1 week after the nephrectomy (once per week, total three times). In Experiment 1, administration was commenced on the final day of the intravenous injection of carbon. In Experiment 2, administration was commenced after the mice were allowed to stand for 10 weeks from the intravenous injection of carbon. In both Experiments, the administration was continued for 5 weeks and then the kidney was taken, fixed with […] and embedded in paraffin. Sliced specimens were stained as TGF-β1 positive area by the immunohistochemical analysis method using TGF-β1 antibody.
Staining was evaluated according to the Kagami et al. method (Kagami S., Border WA., Ruslahti E., Noble B.: Coordinated expression of β integrins and transforming growth factor-β induced matrix proteins in glomerulonephritis. Lab Invest 1993, 69, 68-76) and is shown as staining score (Index).

[1] abbreviates: Experiment 2, 2.0 mg/kg, p < 0.05 vs control.

Description for anti-GBM nephritic mice: BALB/c mice (5 weeks old, purchased from Nippon Charles Liver) were quarantined and adapted for about 1 week before subjecting to experiments. These mice were divided into several groups for the experiments so that average body weights and standard deviations were almost identical in all groups. Mouse anti-GBM (glomerular basement membrane) nephritis was caused by immunizing the mice with rabbit γ-globulin (1 mg) with Freund's complete adjuvant and intravenously injecting rabbit anti-mouse GBM serum on the fifth day from the immunization. Each compound tested was forcedly orally administered via an oral sonde almost simultaneously with the intravenous injection of the anti-GBM serum. On the 5th and 10th days from the intravenous injection, urine was taken by a plastic metabolic cage and proteinuria was measured (Ohtsuka Tonein TP2). On the 11th day, blood was taken by cutting the carotid and serum cholesterol (S--Ch), blood urea nitrogen (BUN) and serum creatinine (S--Cr) were measured by Toshiba TBA-380 autoanalyzer.

With `COc1ccc(CCN(C)C(=O)/C(C#N)=C/c2cccnc2)cc1OC` [Compound 2], the inhibition at 1 µM in the assay with total TGF-β1 was 56.7%. In addition, in the assay on anti-GBM nephritic mice, the “Total Evaluation” value came to 13, the “Proteinuria 5th day” value was “+”, the “Proteinuria 10th day” value is listed as “+++” and the “Serum Parameter BUN (blood urea nitrogen)” value (from here on “Serum Parameter BUN”) is “-”. In addition, in the assay on anti-GBM nephritic mice, the “Serum Parameter S-Ch (serum cholesterol)” value is “-” and the “Serum Parameter S-Cr (serum creatinine)” value is listed as “+”.
On to `CCN(CCc1ccc(OC)c(OC)c1)C(=O)/C=C/c1cccnc1` [Compound 12], for which the inhibition at 1 µM in the assay with total TGF-β1 was 37.8%. In the assay on anti-GBM nephritic mice, the “Total Evaluation” value was 8, the “Proteinuria 5th day” value was “-”, the “Proteinuria 10th day” value is “+” and the “Serum Parameter BUN” value is given as “+”. Also, in the assay with anti-GBM nephritic mice, the “Serum Parameter S-Ch (serum cholesterol)” value is listed as “+” and the “Serum Parameter S-Cr (serum creatinine)” value is “+++”.
Take `COc1ccc(CCN(C)C(=O)/C=C/c2cncc(Cl)c2)cc1OC` [Compound 29]: in the assay on total TGF-β1, the inhibition at 1 µM was 32.6%. Besides, in the assay on anti-GBM nephritic mice, the “Total Evaluation” value is 16, the “Proteinuria 5th day” value was “++”, the “Proteinuria 10th day” value is recorded as “++” and the “Serum Parameter BUN” value is recorded as “+”. Further, in the assay with anti-GBM nephritic mice, the “Serum Parameter S-Ch (serum cholesterol)” value is reported as “++” and the “Serum Parameter S-Cr (serum creatinine)” value is listed as “+”.
`COC(=O)c1cncc(/C=C/C(=O)N(C)CCc2ccc(OC)c(OC)c2)c1` [Compound 33]: in the assay with total TGF-β1, the inhibition at 1 µM amounted to 49.8%. Moreover, in the assay with anti-GBM nephritic mice, the “Total Evaluation” value was 7, the “Proteinuria 5th day” value is listed as “++”, the “Proteinuria 10th day” value is “++” and the “Serum Parameter BUN” value is reported as “-”. In the assay with anti-GBM nephritic mice, the “Serum Parameter S-Ch (serum cholesterol)” value was “++” and the “Serum Parameter S-Cr (serum creatinine)” value was “+”.
As for `COc1ccc(CCN(C)C(=O)/C=C/c2cccnc2)cc1` [Compound 49], in the assay with total TGF-β1, the inhibition at 1 µM was found to be 59%. In addition, in the assay with anti-GBM nephritic mice, the “Total Evaluation” value is given as 7, the “Proteinuria 5th day” value was “-”, the “Proteinuria 10th day” value was “+” and the “Serum Parameter BUN” value is listed as “+”. In the assay on anti-GBM nephritic mice, the “Serum Parameter S-Ch (serum cholesterol)” value was “+” and the “Serum Parameter S-Cr (serum creatinine)” value is “++”.
As for `COc1ccc(CCNC(=O)/C=C/c2cccnc2)cc1OC` [Compound 55], in the assay with total TGF-β1, the inhibition at 1 µM amounted to 75.7%. In the assay with anti-GBM nephritic mice, the “Total Evaluation” value turned out to be 17, the “Proteinuria 5th day” value was “+”, the “Proteinuria 10th day” value was “+++” and the “Serum Parameter BUN” value is “++”. In the assay on anti-GBM nephritic mice, the “Serum Parameter S-Ch (serum cholesterol)” value is given as “+++” and the “Serum Parameter S-Cr (serum creatinine)” value was “-”.
In the case of `COc1ccc(CCN(C)C(=O)/C(C)=C/c2cccnc2)cc1OC` [Compound 62], in the assay with total TGF-β1, the inhibition at 1 µM was 31.9%. In the assay with anti-GBM nephritic mice, the “Total Evaluation” value is recorded as 14, the “Proteinuria 5th day” value is recorded as “-”, the “Proteinuria 10th day” value is “+++” and the “Serum Parameter BUN” value is on record as “++”. Besides, in the assay on anti-GBM nephritic mice, the “Serum Parameter S-Ch (serum cholesterol)” value was “+++” and the “Serum Parameter S-Cr (serum creatinine)” value is given as “+”.
In the case of `COc1cc(CCN(C)C(=O)/C=C/c2cccnc2)ccc1O` [Compound 73], in the assay on active TGF-β1, the inhibition at 1 µM turned out to be 78%. Also, the inhibition at 1 µM with total TGF-β1 came to 84%. Besides, in the assay on anti-GBM nephritic mice, the “Total Evaluation” value stood at 22, the “Proteinuria 5th day” value is given as “+++”, the “Proteinuria 10th day” value was “+++” and the “Serum Parameter BUN” value is given as “+”. In addition, in the assay on anti-GBM nephritic mice, the “Serum Parameter S-Ch (serum cholesterol)” value is given as “+++” and the “Serum Parameter S-Cr (serum creatinine)” value is on record as “-”.
`O=C(/C=C/c1cccnc1)NCCc1cccc(O)c1` [Compound 81, (E)-N-(3-hydroxyphenethyl)-3-(3-pyridyl)-2-propenoic acid amide]: the inhibition at 1 µM with active TGF-β1 came to 58%. In the assay with anti-GBM nephritic mice, the “Total Evaluation” value is given as 26, the “Proteinuria 5th day” value is “+++”, the “Proteinuria 10th day” value is recorded as “+++” and the “Serum Parameter BUN” value was “+++”. In the assay on anti-GBM nephritic mice, the “Serum Parameter S-Ch (serum cholesterol)” value is reported as “+++” and the “Serum Parameter S-Cr (serum creatinine)” value was “++”.
Turning to `COc1ccc(CCN(C)C(=O)/C=C/c2cccnc2)cc1OC` [Compound 84, (E)-N-(3,4-dimethoxyphenethyl)-N-methyl-3-(3-pyridyl)-2-propenoic acid amide], the inhibition at 1 µM in the assay with active TGF-β1 amounted to 40%. Also, the inhibition at 1 µM with total TGF-β1 came to 85%. In the assay with anti-GBM nephritic mice, the “Total Evaluation” value is recorded as 23, the “Proteinuria 5th day” value was “+++”, the “Proteinuria 10th day” value was “+++” and the “Serum Parameter BUN” value is recorded as “+++”. In the assay on anti-GBM nephritic mice, the “Serum Parameter S-Ch (serum cholesterol)” value is recorded as “++” and the “Serum Parameter S-Cr (serum creatinine)” value is recorded as “-”.
For `CCOC(=O)COc1cccc(CCNC(=O)/C=C/c2cccnc2)c1` [Compound 99], in the assay with TGF-β1 (Experiment 1), the “glomerular TGF-β1 expression” value is “tendency of inhibiting glomerular TGF-β1 expression”. For the same compound, in the assay on TGF-β1 (Experiment 1, 0.1 mg/kg), the “% inhibition of Index” value is reported as 15% and the “staining score (Index), glomerular TGF-β1” value (“staining score (Index)” for short) is 0.17 ± 0.04. Also, in the assay on TGF-β1 (Experiment 1, 0.5 mg/kg), the “% inhibition of Index” value stood at 35% and the “staining score (Index)” value was 0.13 ± 0.03. Moreover, in the assay with TGF-β1 (Experiment 1, 2.0 mg/kg), the “% inhibition of Index” value is on record as 45% and the “staining score (Index)” value is 0.11 ± 0.03. The “increase of Index” value with TGF-β1 (Experiment 2) is “significantly inhibited the increase of Index”. For the same compound, in the assay with TGF-β1 (Experiment 2, 0.1 mg/kg), the “% inhibition of Index” value is recorded as 29% and the “staining score (Index)” value is 0.29 ± 0.04. In addition, in the assay on TGF-β1 (setting [1]), the “staining score (Index)” value was determined as 0.18 ± 0.05 and the “% inhibition of Index” value came to 56%. In the assay on TGF-β1 (Experiments 1 and 2, conclusion), the “production of TGF-β1 in vivo” value is “inhibiting action on the production of TGF-β1 in vivo”. In the assay on anti-GBM nephritic mice, the “Total Evaluation” value stood at 21, the “Proteinuria 5th day” value is listed as “+++”, the “Proteinuria 10th day” value is recorded as “+++” and the “Serum Parameter BUN” value is “+”. Further, in the assay with anti-GBM nephritic mice, the “Serum Parameter S-Ch (serum cholesterol)” value is “-” and the “Serum Parameter S-Cr (serum creatinine)” value is “++”.
Consider `COc1ccc(CCN(C)C(=S)/C=C/c2cccnc2)cc1OC` [Compound 135, (E)-N-(3,4-dimethoxyphenethyl)-N-methyl-3-(3-pyridyl)-2-propenoic acid thioamide hydrochloride], for which the inhibition at 1 µM in the assay on total TGF-β1 was 47.1%. In addition, in the assay on anti-GBM nephritic mice, the “Total Evaluation” value is 6, the “Proteinuria 5th day” value is “-”, the “Proteinuria 10th day” value is recorded as “+” and the “Serum Parameter BUN” value is “+”. In the assay on anti-GBM nephritic mice, the “Serum Parameter S-Ch (serum cholesterol)” value was “+” and the “Serum Parameter S-Cr (serum creatinine)” value is given as “+”.
With `O=C(O)COc1cccc(CCNC(=O)/C=C/c2cccnc2)c1` [Compound 148], the inhibition at 1 µM in the assay with active TGF-β1 was 45%; in the assay on total TGF-β1, 78.3%.

As a reminder, the inhibition is the drop in the measured response relative to a control, in per cent.
